Test results published in ChEMBL document CHEMBL2401734, “Structures and biosynthesis of 12-membered macrocyclic depsipeptides from Streptomyces sp. ML55” (Bioorg Med Chem Lett, 2013).
Active and inactive are the calls of the source. The calls are words filed in the database; no cut-off is given here.

System: HT-29
Assay: Antiproliferative activity against human HT-29 cells after 1 to 15 hrs
Assay type: functional, cell-based

Row | Structure (SMILES) | Activity
1 | CCC(C)C1OC(=O)[C@@H](NC(=O)c2cccc(N)c2O)[C@H](C)OC(=O)C(C)(C)C(=O)C(CC(C)C)OC1=O (some centres not stated) | Active
2 | CCC(C)C1OC(=O)[C@@H](NC(=O)c2cccc(O)c2O)[C@H](C)OC(=O)C(C)(C)C(=O)C(CC(C)C)OC1=O (some centres not stated) | Active
